Measured values from US10464922B2, “Metalloenzyme inhibitor compounds” (NQP 1598 LTD., priority 2015, dated 2019).
≈ marks a conversion by molar mass, not a printed value.

Assays:
C. albicans (ATCC 90028) = experiment: Minimum inhibitory concentration, in vitro broth microdilution assay (CLSI M27-A2); assay type: cell-based, Candida albicans; conditions: ATCC 90028, about 50% growth reduction, 2 days at 36° C., range tested 8-0.0078 μg/mL, values given as ranges; for MIC: Candida albicans, ATCC90028, 48 h, read-out: Candida albicans MIC
Procedure: The antifungal potency of the test compounds was measured using the in vitro broth microdilution assay under assay conditions described by the Clinical and Laboratory Standards Institute (CLSI M27-A2). The test compounds were dissolved in 100% DMSO, suspended completely by sonication or vortexing, diluted by 2-fold serial titrations in the same vehicle, for a total of 11 test concentrations. A 4 μL aliquot of each dilution was added to 196 μL of RPMI-1640+MOPS medium seeded with the C. albicans (ATCC 90028) suspension in wells of a 96 well plate (fungal cell count: 1×10^3 to 1×10^4 colony forming units per mL). The final volume was 200 μL in each well and the final DMSO concentration was 2 percent. The inoculated plates were incubated for 2 days at 36° C. Following incubation, the test plates were visually examined and wells were scored for growth to define the minimum inhibitory concentration. […] Each test substance was evaluated in duplicate. Vehicle-control and an active reference agent (e.g., posaconazole) were used as blank and positive controls, respectively.

A. fumigatus = A. fumigatus MIC at 100% growth inhibition (CLSI M38-A2); assay type: cell-based, Aspergillus fumigatus; conditions: 100% growth inhibition, range tested 8-0.0078 μg/mL, values given as ranges; for MIC: Aspergillus fumigatus, read-out: Aspergillus fumigatus MIC
Procedure: A. fumigatus MICs were determined at 100% growth inhibition following CLSI guidelines at a concentration range of 8-0.0078 μg/mL (CLSI M38-A2).

Row | Compound | MIC (C. albicans (ATCC 90028)) [µg/mL] | MIC (A. fumigatus) [µg/mL] | Candida albicans MIC (C. albicans (ATCC 90028)) [ng/mL] | Aspergillus fumigatus MIC (A. fumigatus) [µg/mL]
1 | O[C@@](Cn1cnnn1)(c1ccc(F)cc1F)C(F)(F)c1ccc(-c2ccc(N3CCN(c4ccc(F)cc4)CC3)cc2)cn1 [Example 2, (R)-2-(2,4-difluorophenyl)-1,1-difluoro-1-(5-(4-(4-(4-fluorophenyl)piperazin-1-yl)phenyl)pyridin-2-yl)-3-(1H-tetrazol-1-yl) propan-2-ol] | 0.0078 to 0.01 (≈ 0.0128 to 0.0165 µM) | 0.25 to 1 (≈ 0.411 to 1.65 µM) | – | –
2 | OC(c1ccc(N2CCN(c3ccc(-c4ccc(C(F)(F)[C@](O)(Cn5cnnn5)c5ccc(F)cc5F)nc4)cc3)CC2)cc1)C(F)(F)F (stereo partly drawn) [Example 3, (2R)-2-(2,4-difluorophenyl)-1,1-difluoro-3-(1H-tetrazol-1-yl)-1-(5-(4-(4-(4-(2,2,2-trifluoro-1-hydroxyethyl)phenyl)piperazin-1-yl)phenyl)pyridin-2-yl) propan-2-ol] | 0.0078 to 0.01 (≈ 0.0113 to 0.0145 µM) | 0.25 to 1 (≈ 0.364 to 1.45 µM) | – | –
3 | NC(c1ccc(N2CCN(c3ccc(-c4ccc(C(F)(F)[C@](O)(Cn5cnnn5)c5ccc(F)cc5F)nc4)cc3)CC2)cc1)C(F)(F)F (stereo partly drawn) [Example 4, (2R)-1-(5-(4-(4-(4-(1-amino-2,2,2-trifluoroethyl)phenyl)piperazin-1-yl)phenyl)pyridin-2-yl)-2-(2,4-difluorophenyl)-1,1-difluoro-3-(1H-tetrazol-1-yl) propan-2-ol] | 0.01 to 0.1 (≈ 0.0146 to 0.146 µM) | 0.25 to 1 (≈ 0.364 to 1.46 µM) | – | –
4 | OC(c1ccc(N2CCN(c3ccc(-c4ccc(C(F)(F)[C@](O)(Cn5cnnn5)c5ccc(F)cc5F)nc4)cc3)CC2)cc1F)C(F)(F)F (stereo partly drawn) [Example 5, (2R)-2-(2,4-difluorophenyl)-1,1-difluoro-1-(5-(4-(4-(3-fluoro-4-(2,2,2-trifluoro-1-hydroxyethyl)phenyl)piperazin-1-yl)phenyl)pyridin-2-yl)-3-(1H-tetrazol-1-yl) propan-2-ol] | 0.0078 to 0.01 (≈ 0.0111 to 0.0142 µM) | 0.25 to 1 (≈ 0.354 to 1.42 µM) | – | –
5 | OC(c1ccc(N2CCN(c3ccc(-c4ccc(C(F)(F)[C@](O)(Cn5cnnn5)c5ccc(F)cc5F)nc4)cc3)CC2)cn1)C(F)(F)F (stereo partly drawn) [Example 6, (2R)-2-(2,4-difluorophenyl)-1,1-difluoro-3-(1H-tetrazol-1-yl)-1-(5-(4-(4-(6-(2,2,2-trifluoro-1-hydroxyethyl)pyridin-3-yl)piperazin-1-yl)phenyl)pyridin-2-yl) propan-2-ol] | – | – | ≤7.8 to 10 | 0.25 to 1.0
6 | N#Cc1ccc(N2CCN(c3ccc(-c4ccc(C(F)(F)[C@](O)(Cn5cnnn5)c5ccc(F)cc5F)nc4)cc3)CC2)cn1 [Example 7, (R)-5-(4-(4-(6-(2-(2,4-difluorophenyl)-1,1-difluoro-2-hydroxy-3-(1H-tetrazol-1-yl)propyl)pyridin-3-yl)phenyl)piperazin-1-yl) picolinonitrile] | 0.0078 to 0.01 (≈ 0.0127 to 0.0162 µM) | 0.25 to 1 (≈ 0.406 to 1.62 µM) | – | –
7 | N#Cc1ccc(N2CCN(c3ccc(-c4ccc(C(F)(F)[C@](O)(Cn5cnnn5)c5ccc(F)cc5F)nc4)cc3)CC2)cc1F [Example 8, (R)-4-(4-(4-(6-(2-(2,4-difluorophenyl)-1,1-difluoro-2-hydroxy-3-(1H-tetrazol-1-yl)propyl)pyridin-3-yl)phenyl)piperazin-1-yl)-2-fluorobenzonitrile] | 0.0078 to 0.01 (≈ 0.0123 to 0.0158 µM) | 0.25 to 1 (≈ 0.395 to 1.58 µM) | – | –
8 | N#Cc1ccc(N2CCN(c3ccc(-c4ccc(C(F)(F)[C@](O)(Cn5cnnn5)c5ccc(F)cc5F)nc4)cc3F)CC2)c(F)c1 [Example 9, (R)-4-(4-(4-(6-(2-(2,4-difluorophenyl)-1,1-difluoro-2-hydroxy-3-(1H-tetrazol-1-yl)propyl)pyridin-3-yl)-2-fluorophenyl)piperazin-1-yl)-3-fluorobenzonitrile] | 0.0078 to 0.01 (≈ 0.012 to 0.0154 µM) | > 8 | – | –
9 | N#Cc1ccc(N2CCN(c3ccc(-c4ccc(C(F)(F)[C@](O)(Cn5cnnn5)c5ccc(F)cc5F)nc4)cc3F)CC2)cc1 [Example 10, (R)-4-(4-(4-(6-(2-(2,4-difluorophenyl)-1,1-difluoro-2-hydroxy-3-(1H-tetrazol-1-yl)propyl)pyridin-3-yl)-2-fluorophenyl)piperazin-1-yl) benzonitrile] | 0.0078 to 0.01 (≈ 0.0123 to 0.0158 µM) | > 8 | – | –
10 | N#Cc1ccc(N2CCN(c3ccc(-c4ccc(C(F)(F)[C@](O)(Cn5cnnn5)c5ccc(F)cc5F)nc4)cc3)CC2)c(F)c1 [Example 11, (R)-4-(4-(4-(6-(2-(2,4-difluorophenyl)-1,1-difluoro-2-hydroxy-3-(1H-tetrazol-1-yl)propyl)pyridin-3-yl)phenyl)piperazin-1-yl)-3-fluorobenzonitrile] | 0.0078 to 0.01 (≈ 0.0123 to 0.0158 µM) | 0.25 to 1 (≈ 0.395 to 1.58 µM) | – | –
11 | OC(CC(F)(F)F)c1ccc(N2CCN(c3ccc(-c4ccc(C(F)(F)[C@](O)(Cn5cnnn5)c5ccc(F)cc5F)nc4)cc3)CC2)cn1 (stereo partly drawn) [Example 13, 1-(5-(4-(4-(6-((R)-2-(2,4-difluorophenyl)-1,1-difluoro-2-hydroxy-3-(1H-tetrazol-1-yl)propyl)pyridin-3-yl)phenyl)piperazin-1-yl)pyridin-2-yl)-3,3,3-trifluoropropan-1-ol] | 0.0078 to 0.01 (≈ 0.0111 to 0.0142 µM) | – | – | 0.25 to 1.0
12 | Nc1ccc(N2CCN(c3ccc(-c4ccc(C(F)(F)[C@](O)(Cn5cnnn5)c5ccc(F)cc5F)nc4)cc3)CC2)cc1 [Example 14, (R)-1-(5-(4-(4-(4-aminophenyl)piperazin-1-yl)phenyl)pyridin-2-yl)-2-(2,4-difluorophenyl)-1,1-difluoro-3-(1H-tetrazol-1-yl) propan-2-ol] | 0.01 to 0.1 (≈ 0.0165 to 0.165 µM) | > 8 | – | –
13 | OC(c1ccc(N2CCN(c3ccc(-c4ccc(C(F)(F)[C@](O)(Cn5cnnc5)c5ccc(F)cc5F)nc4)cc3)CC2)cc1)C(F)(F)F (stereo partly drawn) [Example 16, (2R)-2-(2,4-difluorophenyl)-1,1-difluoro-3-(4H-1,2,4-triazol-4-yl)-1-(5-(4-(4-(4-(2,2,2-trifluoro-1-hydroxyethyl)phenyl)piperazin-1-yl)phenyl)pyridin-2-yl) propan-2-ol] | 0.0078 to 0.01 (≈ 0.0114 to 0.0146 µM) | 0.25 to 1 (≈ 0.364 to 1.46 µM) | – | –
14 | N#Cc1ccc(CN2CCN(c3ccc(-c4ccc(C(F)(F)[C@](O)(Cn5cnnn5)c5ccc(F)cc5F)nc4)cc3)CC2)cc1 [Example 17, (R)-4-((4-(4-(6-(2-(2,4-difluorophenyl)-1,1-difluoro-2-hydroxy-3-(1H-tetrazol-1-yl)propyl)pyridin-3-yl)phenyl)piperazin-1-yl)methyl) benzonitrile] | 0.0078 to 0.01 (≈ 0.0124 to 0.0159 µM) | 1 to 4 (≈ 1.59 to 6.36 µM) | – | –
15 | N#Cc1ccc(N2CCN(Cc3ccc(-c4ccc(C(F)(F)[C@](O)(Cn5cnnn5)c5ccc(F)cc5F)nc4)cc3)CC2)cc1 [Example 18, (R)-4-(4-(4-(6-(2-(2,4-difluorophenyl)-1,1-difluoro-2-hydroxy-3-(1H-tetrazol-1-yl)propyl)pyridin-3-yl)benzyl)piperazin-1-yl) benzonitrile] | 0.0078 to 0.01 (≈ 0.0124 to 0.0159 µM) | > 8 | – | –
16 | N#Cc1ccc(N2CCN(C(=O)c3ccc(-c4ccc(C(F)(F)[C@](O)(Cn5cnnn5)c5ccc(F)cc5F)nc4)cc3)CC2)cc1 [Example 19, (R)-4-(4-(4-(6-(2-(2,4-difluorophenyl)-1,1-difluoro-2-hydroxy-3-(1H-tetrazol-1-yl)propyl)pyridin-3-yl)benzoyl)piperazin-1-yl) benzonitrile] | 0.0078 to 0.01 (≈ 0.0121 to 0.0156 µM) | > 8 | – | –
17 | CC[C@H](NC(=O)Nc1ccc(N2CCN(c3ccc(-c4ccc(C(F)(F)[C@](O)(Cn5cnnn5)c5ccc(F)cc5F)nc4)cc3)CC2)cc1)[C@H](C)O [Example 21, 1-(4-(4-(4-(6-((R)-2-(2,4-difluorophenyl)-1,1-difluoro-2-hydroxy-3-(1H-tetrazol-1-yl)propyl)pyridin-3-yl)phenyl)piperazin-1-yl)phenyl)-3-((2S,3S)-2-hydroxypentan-3-yl) urea] | 0.01 to 0.1 (≈ 0.0136 to 0.136 µM) | 0.25 to 1 (≈ 0.341 to 1.36 µM) | – | –
18 | N#Cc1ccc(N2CCC(c3ccc(-c4ccc(C(F)(F)[C@](O)(Cn5cnnn5)c5ccc(F)cc5F)nc4)cc3)CC2)cc1 [Example 22, (R)-4-(4-(4-(6-(2-(2,4-difluorophenyl)-1,1-difluoro-2-hydroxy-3-(1H-tetrazol-1-yl)propyl)pyridin-3-yl)phenyl)piperidin-1-yl) benzonitrile] | 0.0078 to 0.01 (≈ 0.0127 to 0.0163 µM) | 0.25 to 1 (≈ 0.407 to 1.63 µM) | – | –
19 | N#Cc1ccc(C(=O)N2CCN(c3ccc(-c4ccc(C(F)(F)[C@](O)(Cn5cnnn5)c5ccc(F)cc5F)nc4)cc3)CC2)cc1 [Example 23, (R)-4-(4-(4-(6-(2-(2,4-difluorophenyl)-1,1-difluoro-2-hydroxy-3-(1H-tetrazol-1-yl)propyl)pyridin-3-yl)phenyl)piperazine-1-carbonyl) benzonitrile] | 0.0078 to 0.01 (≈ 0.0121 to 0.0156 µM) | > 8 | – | –
20 | N#Cc1ccc(N2CCN(c3ccc(-c4ccc(C(F)(F)[C@](O)(Cn5cnnn5)c5ccc(F)cc5F)nc4)cc3)C(=O)C2)cc1 [Example 24, (R)-4-(4-(4-(6-(2-(2,4-difluorophenyl)-1,1-difluoro-2-hydroxy-3-(1H-tetrazol-1-yl)propyl)pyridin-3-yl)phenyl)-3-oxopiperazin-1-yl) benzonitrile] | 0.0078 to 0.01 (≈ 0.0124 to 0.0159 µM) | > 8 | – | –
21 | N#Cc1ccc(N2CCN(c3ccc(-c4ccc(C(F)(F)[C@](O)(Cn5cnnn5)c5ccc(F)cc5F)nc4)cc3)CC2=O)cc1 [Example 25, (R)-4-(4-(4-(6-(2-(2,4-difluorophenyl)-1,1-difluoro-2-hydroxy-3-(1H-tetrazol-1-yl)propyl)pyridin-3-yl)phenyl)-2-oxopiperazin-1-yl) benzonitrile] | 0.0078 to 0.01 (≈ 0.0124 to 0.0159 µM) | 0.25 to 1 (≈ 0.398 to 1.59 µM) | – | –
